These results are taken from patent publication US20240009157A1 (PriZm, LLC, priority 2022, published 2024).

Data set [1] has as its system pediatric patient suffering from Allan-Herndon-Dudley Syndrome. Briefly: Dosing regimen for a pediatric subject, T3 serum levels. The format is in vivo, human. On the procedure:
Following the first 2 weeks, the daily dosage was increased to 2 mg/kg/day for 2 additional weeks. […] Following the first 2 weeks, the daily dosage was increased to 2 mg/kg/day for 2 additional weeks. […] Following the first 2 weeks, the daily dosage was increased to 2 mg/kg/day for 2 additional weeks.

The subject of a further data set is child having a G-tube. Briefly: Effect of DITPA on removal of G-tube. The data set is classed as in vivo, human. Conditions: one child who started DITPA while having a G-tube.
The test system of data set [2] is MCT8 mutant (mct8−/−) zebrafish. Conditions: cited from earlier work.
For data set [3] the following is noted: ambient temperature and light; cited from earlier work.
Data set [4] deals with MCT8-deficient (knockout) mice (Mct8KO). The note with it: cited from earlier work.
The test system of the next data set is pediatric subjects. Conditions: human, in vivo; cited from earlier work.

Take `O=C(O)CCc1cc(I)c(Oc2ccc(O)cc2)c(I)c1` [DITPA, 3,5-diiodothyropropionic acid]: in data set [1] (1 mg/kg/day for 2 weeks, then 2 mg/kg/day for 2 additional weeks, above normal), the “T3 serum levels above normal” value is “more than 15%”. Besides, the “T3 serum levels below normal” value in data set [1] (1 mg/kg/day for 2 weeks, then 2 mg/kg/day for 2 additional weeks, below normal) is “more than 15%”. The “T3 serum levels upon reassessment” value in data set [1] (after 1.0 mg/kg/day for 28 days) is on record as “normal”. Moreover, the “T3 serum levels upon reassessment” value in data set [1] (after 1.5 mg/kg/day for 28 days) is “normal”. Moreover, the “T3 serum levels upon reassessment, below normal” value in data set [1] (after 1.5 mg/kg/day for 28 days, below normal) is on record as “more than 15%”. Besides, the “T3 serum levels upon reassessment” value in data set [1] (after 2.5 mg/kg/day for 28 days) is “normal”. Moreover, in the data set with child having a G-tube, the G-tube entry was “g-tube was removed” and the body weight entry is recorded as “gained weight”. Besides, the “hypomyelination in the CNS” value in data set [2] is “SRW101 and other TH analogs partially rescued the hypomyelination”. The stability result in data set [3] is “stable at ambient temperature and light”. Also, in data set [4], the “MCT8 dependence of entry into the brain” value was “independent for entry into the brain”; the TH deficit result was “corrects the TH deficit”; the “measurements and other parameters of TH action” value is “showed that SRW101 normalized all measurements and other”; the “thyrotoxic effect in the liver” value was “Mct8KO mice without causing thyrotoxic effect in the liver (Di”. Also, the “thyrotoxic state in the liver (analysis of TH target genes)” value in data set [4] is on record as “amelioration of the thyrotoxic state in the liver (ameliorating”.

Take `O=C(O)Cc1cc(I)c(Oc2ccc(O)c(I)c2)c(I)c1` [TRIAC, triiodothyroacetic acid]: in the data set on pediatric subjects, the “effects in pediatric subjects” value was “subjects with positive effects”.
